Laboratory results: EP0184738A2, “Imidazole derivatives, medicaments containing these compounds, and process for their preparation” (Dr. Karl Thomae GmbH, priority 1984, dated 1986)

What follows are compounds tested on despinalisierten Meerschweinchen (assay: Determination of the positive inotropic effect in despinalised guinea pigs). Settings: 1 mg/kg i.v. (Vena jugularis), mean of 3 despinalised guinea pigs, left ventricular pressure.
Assay type: in vivo
From the text: Bestimmung der positiv inotropen Wirkung an despinalisierten Meerschweinchen
Die Untersuchungen wurden an despinalisierten Meerschweinchen durchgeführt. Die Tiere wurden mit 50 % 02 + 50 % N2 beatmet. Der arterielle Blutdruck wurde in der rechten Arteria Carotis mit einem Bell and Howell Druckwandler (4-327-I) gemessen. Für die Erfassung der positiv inotropen Wirkung wurde mit einem Kathetertipmanometer (Millar PR-249) der Druck in dem linken Ventrikel (LV) gemessen. Mittels eines Differenzierers wurde LV-dp/dtmax gewonnen. Die zu untersuchenden Substanzen wurden in eine Vena jugularis injiziert. Als Lösungsdmittel diente 0,9 % NaCl+Polydiol 200 (1:1).
Jede Substanz wurde an 3 Meerschweinchen überprüft. Die Dosen waren 0,1 - 3 mg/kg i.v.. Die nachfolgende Tabelle enthält die Mittelwerte bei 1 mg/kg i.v..
Die neuen Verbindungen sind gut verträglich, so konnte bei der Untersuchung der Substanzen A bis D bis zu einer Dosis von 3 mg/kg i.v. keinerlei herztoxische Wirkungen bzw. Kreislaufschäden beobachtet werden.

In order of falling “Zunahme in LV-dp/dtmax” value:
1. COc1ncc2[nH]c(-c3ccc4ccccc4c3)nc2n1 [Substanz C, 2-Methoxy-8-(naphth-2-yl)-purin]  33%
2. O=c1ccc2[nH]c(-c3cc4ccccc4cc3Cl)nc2[nH]1 [Substanz B, 2-(3-Chlor-naphth-2-yl)-lH-imidazo[4,5-b]pyridin-5-on]  30%
3. O=c1[nH][nH]cc2nc(-c3ccc4ccccc4c3)nc1-2 [Substanz A, 2-(Naphth-2-yl)-5H-imidazo[4,5-d]pyridazin-4-on]  28%
4. CCCOc1cc2ccccc2cc1-c1nc2cnc(Cl)nc2[nH]1 [Substanz D, 2-Chlor-8-(3-n-propoxy-naphth-2-yl)-purin]  27%
